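Tested at 5 concentrations; 48 h exposure; 96-well plates; endpoints linearly interpolated, else capped at highest concentration. The concentration for 50% growth inhibition is given as GI50. TGI: total growth inhibition.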
Legend:
Test in all cases: NCI tumour cell line growth inhibition, 48 h
A549 NSCLC = test system: A549 NSCLC
HOP-92 NSCLC = test system: HOP-92 NSCLC
HT29 colon = test system: HT29 colon
NCI-H460 lung = test system: NCI-H460 lung
SNB-19 CNS = test system: SNB-19 CNS
TK-10 renal = test system: TK-10 renal
HCT-116 colon = test system: HCT-116 colon
MCF7 breast = test system: MCF7 breast
T-47D breast = test system: T-47D breast
NCI/ADR-RES ovarian = test system: NCI/ADR-RES ovarian

| Structure (SMILES) | TGI (A549 NSCLC) [µM] | TGI (HOP-92 NSCLC) [µM] | TGI (HT29 colon) [µM] | TGI (NCI-H460 lung) [µM] | TGI (SNB-19 CNS) [µM] | TGI (TK-10 renal) [µM] | GI50 (A549 NSCLC) [µM] | GI50 (HCT-116 colon) [µM] | TGI (HCT-116 colon) [µM] | GI50 (HOP-92 NSCLC) [µM] | GI50 (HT29 colon) [µM] | GI50 (MCF7 breast) [µM] | TGI (MCF7 breast) [µM] | GI50 (NCI-H460 lung) [µM] | GI50 (SNB-19 CNS) [µM] | GI50 (T-47D breast) [µM] | TGI (T-47D breast) [µM] | GI50 (TK-10 renal) [µM] | GI50 (NCI/ADR-RES ovarian) [µM] | TGI (NCI/ADR-RES ovarian) [µM] |
| --- | --- | --- | --- | --- | --- | --- | --- | --- | --- | --- | --- | --- | --- | --- | --- | --- | --- | --- | --- | --- |
| O=S(O)CCCCSSCc1ccccc1CSSCCCCS(=O)O | > 100 | 74.7 | 20.6 | > 100 | > 100 | > 100 | – | – | – | – | – | – | – | – | – | – | – | – | – | – |
| CC(=O)Oc1ccccc1C(=O)N=C1[Se]CCN1C(=O)c1ccccc1OC(C)=O | 2.64 | 3.58 | 4.46 | 2.06 | 4.31 | 1.87 | 0.832 | 0.32 | 1.15 | 1.85 | 0.637 | 1.12 | 5.06 | 0.379 | 1.23 | 1.84 | 5.06 | 0.491 | – | – |
| O=C(CCCN1CC=C(n2c(=O)[nH]c3ccccc32)CC1)c1ccc(F)cc1 | > 100 | > 100 | > 100 | > 100 | – | > 100 | 70.2 | 28.5 | > 100 | 45.3 | 27.6 | 31.1 | > 100 | 35.2 | – | 19.7 | 73.6 | 87 | 22.9 | > 100 |
| O=C(/C=C/c1ccccc1)/C=C/c1ccccc1 | > 100 | 88.6 | 35.1 | 65.5 | – | > 100 | – | – | 32.1 | – | – | – | – | – | – | – | – | – | – | – |
| CSC1(CC(=O)N(C)C)C(=O)Nc2ccccc21 (stereo not drawn) | > 100 | – | > 100 | > 100 | > 100 | > 100 | – | – | > 100 | – | – | – | > 100 | – | – | – | > 100 | – | – | > 100 |
| CCCCCCCCCc1cc(=O)c2c(O)cccc2o1 | > 100 | > 100 | > 10 | > 100 | > 100 | > 100 | – | – | > 100 | – | – | – | – | – | – | – | – | – | – | – |
| CCOC(=O)[C@H](CCCNC(=O)OC(C)(C)C)NCc1ccc(OC)c(OC)c1 | > 100 | > 100 | > 100 | – | > 100 | > 100 | – | – | > 100 | – | – | – | – | – | – | – | – | – | – | – |
| Cc1[nH][nH]c(=O)c1C=Nc1ccc(-c2nc3ccccc3[nH]2)cc1 | > 100 | > 100 | – | > 100 | 57.3 | > 100 | 42.9 | – | – | > 100 | – | – | 0.612 | 33.3 | 22.6 | – | – | > 100 | – | – |
| Cc1cn2c(/C=C3/C(=O)Nc4ccccc43)c(-c3ccc(Cl)cc3)nc2s1 | 16 | – | 16.2 | 22.1 | 13.5 | 17.3 | 7.52 | – | – | – | 9.23 | 6.9 | 19.7 | 8.14 | 7.01 | – | – | 8.99 | – | – |
| CCN(CC)CC(C)(C)C(=O)/C=C/c1ccc(Cl)c(Cl)c1 | 4.88 | 1.85 | – | 4.36 | 3.54 | 3.04 | 2.38 | 1.79 | 3.2 | 0.418 | – | 0.959 | 2.8 | 2.07 | 1.82 | 1.52 | 4.03 | 1.67 | – | – |
| O=C1CSC(Cc2nc3ccccc3[nH]2)=N1 | 79.5 | 57.8 | > 100 | – | 80.8 | 48.1 | – | – | 27.6 | – | – | – | – | – | – | – | – | – | – | – |
| CCOC(=O)C1N(S(=O)(=O)c2ccc(C)cc2)CCC12C(c1ccc(OC)cc1)NC1CCCCC12 (stereo not drawn) | > 100 | 80.9 | > 100 | > 100 | > 100 | > 100 | – | – | > 100 | – | – | – | – | – | – | – | – | – | – | – |
| O=C(CCC(=O)Nc1cccc(Cl)c1)CC(=O)c1ccc(Cl)cc1 | > 100 | > 100 | > 100 | > 100 | > 100 | > 100 | – | – | > 100 | – | – | – | – | – | – | – | – | – | – | – |
| Cc1c(C2Nc3ccccc3C2C)[nH]c2ccccc12 (stereo not drawn) | 24.1 | – | 23.1 | 18.3 | 38 | 34.2 | 1.67 | 0.83 | 23.5 | – | 4.48 | 4.26 | 27.8 | 0.43 | 13.8 | 6.16 | 24 | 17.4 | 10.4 | 30.7 |
| O=C(Nc1ccc([N+](=O)[O-])cc1)C1C(=O)C(=O)N(c2ccc([N+](=O)[O-])cc2)C1=O (stereo not drawn) | > 100 | > 100 | > 100 | > 100 | > 100 | > 100 | – | – | > 100 | – | – | – | – | – | – | – | – | – | – | – |
| N#CC(/C(=N/NC(=O)C(=O)NN)C(=O)NC12CC3CC(CC(C3)C1)C2)c1ccccc1 (stereo not drawn) | > 100 | > 100 | > 100 | > 100 | > 100 | > 100 | – | – | > 100 | – | – | – | – | – | – | – | – | – | – | – |
| COC(=O)/C=C/C1C(C(=O)OC)C2(C(=O)OC)CCC1(C(=O)OC)N2 (stereo not drawn) | > 100 | > 100 | > 100 | > 100 | > 100 | > 100 | – | – | > 100 | – | – | – | – | – | – | – | – | – | – | – |
| CC(=O)c1c(CBr)n([O-])c2ccccc2[n+]1=O | 57 | 24 | 25.9 | – | 40 | 16.6 | 23.1 | 1.36 | 2.89 | 7.36 | 8.34 | – | – | – | 18.8 | 2.87 | 11.4 | 5.44 | 19.5 | 50.3 |
| CCCCCc1c(C)[nH]c(/C=C2\N=C(c3ccc[nH]3)C=C2CC)c1C | 0.0846 | 0.0426 | 0.131 | – | 1.46 | 0.166 | < 0.0125 | < 0.01 | 0.0255 | < 0.013 | < 0.01 | 0.0208 | 0.106 | – | 0.0433 | 0.0187 | 0.149 | < 0.0155 | 0.0139 | 0.124 |
| COc1ccc(C2C(C#N)=C(N)OC3=C2COc2ccc(F)cc23)cc1OC (stereo not drawn) | 63.8 | > 100 | – | > 100 | > 100 | 60.4 | 27.2 | 12 | 36.1 | 47.6 | – | 32.9 | > 100 | 40 | 73.8 | – | – | 19.4 | 19.4 | 57.3 |

Source: PubChem BioAssay (NCI)
